Test [1] concerns the target rat maltase. In words: Intestinal alpha-glucosidase assay, maltose substrate. The format is biochemical. To be noted: alpha-glucosidase from intestinal rat powder. As to the method: Intestinal alpha-glucosidases (rat maltase and sucrase): Intestinal alpha-glucosidases act upon 1,4-alpha-glucoside bonds, breaking down disaccharides to glucose. To perform this assay, partially purified alpha-glucosidase from intestinal rat powder was incubated for 60 minutes at 37° C. with multiple dilutions of test compounds. Maltose or Sucrose respectively was then introduced as substrate to the mixture and incubated for 30 minutes at 37° C. The reaction was stopped by a 5-minute incubation at 90° C. and the resultant glucose production is detected using Sigma's Glucose GO Kit. Percent inhibition was then plotted as a function of concentration for each test compound. The IC50 was determined using a 4-PL curve fit and serves as the measure of relative inhibition of each test compound (see Table 4). Table 4 summarizes the results of IC50s for each molecule against each tested glucosidase enzyme.

The target of test [2] is T1, recombinant alpha-glucosidase II (murine full-length glucosidase II) (Mus musculus, UniProt Q8BHN3).
T1 construct: made in house; host or cells: HEK-293T cells co-transduced with two BacMam viruses (75% alpha, 25% beta); secreted into the culture supernatant
T1 sequence (Q8BHN3 with tags, fused parts or gaps isoform Q8BHN3-2): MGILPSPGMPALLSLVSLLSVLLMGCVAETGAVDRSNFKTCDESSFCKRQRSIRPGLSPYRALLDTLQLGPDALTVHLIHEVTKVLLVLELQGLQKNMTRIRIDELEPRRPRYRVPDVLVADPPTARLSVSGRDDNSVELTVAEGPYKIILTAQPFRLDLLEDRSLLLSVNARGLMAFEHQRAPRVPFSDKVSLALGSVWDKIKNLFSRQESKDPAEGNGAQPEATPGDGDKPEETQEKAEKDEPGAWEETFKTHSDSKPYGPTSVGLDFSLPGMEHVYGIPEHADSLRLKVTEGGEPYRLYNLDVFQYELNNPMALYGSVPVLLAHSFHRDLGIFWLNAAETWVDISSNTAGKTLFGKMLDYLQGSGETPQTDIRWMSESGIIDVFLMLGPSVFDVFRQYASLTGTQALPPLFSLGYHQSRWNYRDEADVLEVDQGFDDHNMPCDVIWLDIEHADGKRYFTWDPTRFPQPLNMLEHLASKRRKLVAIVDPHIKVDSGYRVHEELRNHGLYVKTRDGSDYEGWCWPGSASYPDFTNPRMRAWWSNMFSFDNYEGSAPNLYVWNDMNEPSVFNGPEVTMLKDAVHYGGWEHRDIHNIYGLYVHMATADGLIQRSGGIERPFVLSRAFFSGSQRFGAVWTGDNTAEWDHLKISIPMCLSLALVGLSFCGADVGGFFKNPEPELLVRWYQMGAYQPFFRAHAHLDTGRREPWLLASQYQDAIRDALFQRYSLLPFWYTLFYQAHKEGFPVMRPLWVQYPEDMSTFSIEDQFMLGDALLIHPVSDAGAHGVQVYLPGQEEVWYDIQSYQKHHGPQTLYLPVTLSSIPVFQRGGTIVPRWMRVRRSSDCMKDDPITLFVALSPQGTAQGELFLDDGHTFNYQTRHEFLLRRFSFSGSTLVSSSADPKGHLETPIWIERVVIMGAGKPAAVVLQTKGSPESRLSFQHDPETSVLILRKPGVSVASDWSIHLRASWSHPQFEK
T1 sequence (O08795 with tags, fused parts or gaps partner limits assumed): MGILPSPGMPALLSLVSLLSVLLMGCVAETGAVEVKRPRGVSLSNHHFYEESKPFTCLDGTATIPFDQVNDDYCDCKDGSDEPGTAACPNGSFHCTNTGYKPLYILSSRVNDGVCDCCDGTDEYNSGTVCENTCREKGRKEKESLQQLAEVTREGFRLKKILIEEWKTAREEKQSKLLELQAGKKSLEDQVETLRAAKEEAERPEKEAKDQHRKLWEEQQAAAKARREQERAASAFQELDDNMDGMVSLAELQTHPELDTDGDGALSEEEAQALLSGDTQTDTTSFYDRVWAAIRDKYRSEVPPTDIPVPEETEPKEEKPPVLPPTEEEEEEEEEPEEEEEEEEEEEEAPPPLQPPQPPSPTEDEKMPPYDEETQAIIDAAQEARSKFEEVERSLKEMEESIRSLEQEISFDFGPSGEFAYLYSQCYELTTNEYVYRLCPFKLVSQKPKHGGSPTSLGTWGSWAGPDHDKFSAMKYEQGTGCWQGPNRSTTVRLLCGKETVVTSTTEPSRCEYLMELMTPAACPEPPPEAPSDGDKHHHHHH
In words: Alpha-glucosidase II assay. The format is biochemical. To be noted: 4-methylumbelliferyl-alpha-D-pyranoside substrate, read-out: aGlc2 IC50. The text has this:
Preparation of Murine Full-length Glucosidase II: Glucosidase is a heterodimeric protein consisting of alpha and beta subunits. […] A single construct was designed for each of the subunits for gene synthesis and cloning into Gateway entry vectors. The alpha subunit was appended with a Strep-affinity tag and the beta subunit was appended with a 6-His affinity tag. The entry vectors were cloned into Kemp Protein's BacMam Destination vector and the vectors were transformed into chemically competent DH10Bac E. coli cells to produce recombinant glucosidase II bacmids. Bacmid isolates for each of the subunits were obtained following two rounds of blue-white screening and they were transfected into Sf9 cells cultivated in serum-free medium (Thermo Fisher Scientific). MOI of 10 with a ratio of 75% alpha subunit and 25% beta subunit was selected for expression of glucosidase II. […] Productions and purifications of glucosidase II were carried out at scales ranging from 1-liter to 10-liters. […] In another example, production at the 10-liter scale was performed in stirred-tank bioreactors at 27° C. and 80 rpm with dissolved oxygen level maintained at 50% of oxygen in air and pH maintained between 7.0 and 7.2. For both subunits, the cells were transduced using a total MOI of 10 (75% alpha and 25% beta) and the culture supernatant was harvested at 96 hours post-transduction using centrifugation and filtration through a 0.2 micron filter.
The supernatant from a 10-liter culture was placed in a stir-jar and 25 mL of Nickel-SEPHAROSE Excel resin (GE) was added. The supernatant was stirred overnight at 25 rpm and 4° C. and the resin was collected into a column (26 mm×60 mm) and washed with 8 CV of 2×DPBS at pH 7.4. The glucosidase II protein was eluted using a linear gradient of 0-60% of 2×DPBS and 500 mM imidazole at pH 7.4. Fractions (10 mL) were collected and analyzed by SDS PAGE and Western Blot (reducing anti-His and anti-Strep). Fractions containing purified glucosidase II were pooled and concentrated for application to a SUPERDEX 200 (26 mm×600 mm) column (GE). The column buffer was PBS pH 7.2 and the concentrated eluate pool was loaded at a rate of 1 mL per minute. Fractions (3 mL) were collected and analyzed using SDS PAGE and Western Blot (reducing anti-His and anti-Strep). Fractions containing purified glucosidase II in PBS pH 7.2 were pooled and concentrated to 1 mg/mL. The final product was filter sterilized and stored at 4° C.
Alpha-glucosidase II Assay: The assay was performed by incubating recombinant enzyme alpha-glucosidase II for 60 minutes at 37° C. with multiple dilutions of test compounds. 4-methylumbelliferyl-alpha-D-pyranoside was then introduced as the substrate to the mixture. Fluorogenic 1,4-methyllumbelliferone was generated, and the reaction was stopped with the stop solution (0.5 M glycine, 0.3 M NaOH pH 10) after an incubation of 30 minutes at 37° C. […] Percent inhibition was then plotted as a function of concentration for each test compound.

SMILES strings stand for the structures.

`O=[N+]([O-])c1cc(-n2nccn2)ccc1NCCCCCCN[C@H]1C[C@](O)(CO)[C@@H](O)[C@H](O)[C@H]1O` [Compound 5, (1S,2S,3R,4S,5S)-1-(hydroxymethyl)-5-((6-((2-nitro-4-(2H-1,2,3-triazol-2-yl)phenyl)amino)hexyl)amino)cyclohexane-1,2,3,4-tetraol]: the IC50 (in general, the concentration needed to halve the response being measured) in test [1] is under 33.3 nM; in test [2], under 1 nM.
Take `O=[N+]([O-])c1cc(-n2ccnn2)ccc1NCCCCCCN[C@H]1C[C@](O)(CO)[C@@H](O)[C@H](O)[C@H]1O` [Compound 6, (1S,2S,3R,4S,5S)-1-(hydroxymethyl)-5-((6-((2-nitro-4-(1H-1,2,3-triazol-1-yl)phenyl)amino)hexyl)amino)cyclohexane-1,2,3,4-tetraol]: the IC50 in test [1] was under 33.3 nM; in test [2], 15.5 nM.
The corresponding values for `[N-]=[N+]=Nc1ccc(NCCCCCCN[C@H]2C[C@](O)(CO)[C@@H](O)[C@H](O)[C@H]2O)c([N+](=O)[O-])c1` [Compound 2, (1S,2S,3R,4S,5S)-5-((6-((4-azido-2-nitrophenyl)amino)hexyl)amino)-1-(hydroxymethyl)cyclohexane-1,2,3,4-tetraol] are 1.65 nM and 33.7 nM.
For `[N-]=[N+]=Nc1ccc(NCCCCN[C@H]2C[C@](O)(CO)[C@@H](O)[C@H](O)[C@H]2O)c([N+](=O)[O-])c1` [Compound 8, (1S,2S,3R,4S,5S)-5-((4-((4-azido-2-nitrophenyl)amino)butyl)amino)-1-(hydroxymethyl)cyclohexane-1,2,3,4-tetraol], the IC50 in test [1] came to 5.3 nM; in test [2], 1010 nM.
In the case of `COCCCCCCCCCN[C@H]1C[C@](O)(CO)[C@@H](O)[C@H](O)[C@H]1O` [Compound 3, (1S,2S,3R,4S,5S)-1-(hydroxymethyl)-5-((9-methoxynonyl)amino)cyclohexane-1,2,3,4-tetraol], the 50% inhibitory concentration (IC50) in test [1] came out at 102 nM; in test [2] it was 490 nM.
The corresponding values for `O=C(O)CCCCN[C@H]1C[C@](O)(CO)[C@@H](O)[C@H](O)[C@H]1O` [Compound 11, 5-(((1S,2S,3R,4S,5S)-2,3,4,5-tetrahydroxy-5-(hydroxymethyl)cyclohexyl)amino)pentanoic acid] are 7580 nM and over 100000 nM.
For the compound `N[C@H]1C[C@](O)(CO)[C@@H](O)[C@H](O)[C@H]1O` [Valiolamine], the half-inhibitory concentration (IC50) in test [1] is 1300 nM; in test [2], over 100000 nM.
On the same counts, the results for `O=[N+]([O-])c1cc(-n2cnnn2)ccc1NCCCCCCN[C@H]1C[C@](O)(CO)[C@@H](O)[C@H](O)[C@H]1O` [Compound 4, (1S,2S,3R,4S,5S)-1-(hydroxymethyl)-5-((6-((2-nitro-4-(1H-tetrazol-1-yl)phenyl)amino)hexyl)amino)cyclohexane-1,2,3,4-tetraol] are 512 nM and 1420 nM.
Take `O=[N+]([O-])c1cc(-c2ncccn2)ccc1NCCCCCCN[C@H]1C[C@](O)(CO)[C@@H](O)[C@H](O)[C@H]1O` [Compound 7, (1S,2S,3R,4S,5S)-1-(hydroxymethyl)-5-((6-((2-nitro-4-(pyrimidin-2-yl)phenyl)amino)hexyl)amino)cyclohexane-1,2,3,4-tetraol]: the IC50 in test [1] was found to be 8.14 nM; in test [2], 1.1 nM.
For the compound `[N-]=[N+]=Nc1ccc(NCCOCCN[C@H]2C[C@](O)(CO)[C@@H](O)[C@H](O)[C@H]2O)c([N+](=O)[O-])c1` [Compound 10, (1S,2S,3R,4S,5S)-5-((2-(2-((4-azido-2-nitrophenyl)amino)ethoxy)ethyl)amino)-1-(hydroxymethyl)cyclohexane-1,2,3,4-tetraol], the IC50 in test [1] turned out to be 26.1 nM; in test [2], 37000 nM.
As for `[N-]=[N+]=Nc1ccc(NCCCCCN[C@H]2C[C@](O)(CO)[C@@H](O)[C@H](O)[C@H]2O)c([N+](=O)[O-])c1` [Compound 9, (1S,2S,3R,4S,5S)-5-((5-((4-azido-2-nitrophenyl)amino)pentyl)amino)-1-(hydroxymethyl)cyclohexane-1,2,3,4-tetraol], the IC50 in test [1] was 4.86 nM; in test [2] it was 27 nM.

These data come from US12673924B2, “Valiolamine derivatives as glucosidase inhibitors” (Emergent Product Development Gaithersburg Inc., priority 2021, dated 2026).
